Experimental data reported in patent US4370416A (Kikkoman Corporation, priority 1980, dated 1983).

Key:
HCEH = assay: Activity of HCEH on hydroxy-cinnamic acid ester substances and tannic acid (liquid chromatography); assay type: biochemical; settings: for Relative activity: HCEH on the substance as substrate, 0.1 M phosphate buffer pH 6.5, molar ratio of produced hydrolyzate; for Action and substrate specificity of the enzyme (hydrolysis of the ester linkage): qualitative
Description: Here, the activity of HCEH on various hydroxy-cinnamic acid ester substances and tannic acid was determined by measuring the quantity of their hydrolysis by means of liquid chromatography using 0.1 M phosphate buffer solution (pH 6.5). The results are shown in Table 3, where the activity is expressed as molar ratio of produced hydrolyzate.

novel HCEH = assay: Inhibition of the novel HCEH; assay type: biochemical

Row | Molecule | Relative activity (HCEH) | Action and substrate specificity of the enzyme (hydrolysis of the ester linkage) (HCEH) | Inhibition of HCEH (novel HCEH)
1 | O=C(C=Cc1ccc(O)c(O)c1)OC(C(=O)O)C(O)C(=O)O (stereo not shown) | 69.8% | hydrolyze the ester linkage | 
2 | O=C(C=Cc1ccc(O)c(O)c1)OC1CC(O)(C(=O)O)CC(O)C1O (stereo not shown) [3-caffeoyl quinic acid] | 100% | hydrolyze the ester linkage | 
3 | Oc1cccc2cccnc12 [8-hydroxyquinoline] |  |  | inhibited
4 | [Fe+2] [Fe^++] |  |  | inhibited
5 | [Hg+2] [Hg^++] |  |  | inhibited
6 | COc1cc(C=CC(=O)OC(C(=O)O)C(O)C(=O)O)ccc1O (stereo not shown) [feruloyl tartaric acid] |  | hydrolyze the ester linkage | 
7 | II [iodine] |  |  | inhibited
8 | O=C(O)c1cc[c]([Hg][Cl])cc1 [p-CMB, p-chloromercury-benzoic acid] |  |  | inhibited
9 | O=C(C=Cc1ccc(O)cc1)OC(C(=O)O)C(O)C(=O)O (stereo not shown) [p-coumaroyl tartaric acid] | 78.3% | hydrolyze the ester linkage | 
10 | Tannic acid | 0% |  | 
